Earlier results on three compounds are cited in patent publication EP0073093A1, “4' Halo-substituted sucrose derivatives” (TATE & LYLE PUBLIC LIMITED COMPANY, priority 1981, dated 1983).

For data set [1] the following is noted: qualitative.

As to “2,6,1',6'-tetrachloro-2,6,1', 6'-tetradeoxy derivative”, in data set [1] (comparable with that of quinine), the bittering power entry is “potent bittering agent”. 2,1'-dichloro-2,1'- dideoxy derivative: the sweetness entry (qualitative, prior-art sucrose derivatives) is reported as “not sweet at all”. `O=C1NS(=O)(=O)c2ccccc21` [saccharin]: for the setting “relative to sucrose”, the “times the sweetening power of sucrose” value is on record as “about 200 times”. Further, the after-taste result in data set [1] is given as “unpleasantly bitter after-taste”.
